Laboratory results taken from patent US9101611B1, “Use of sulfonylurea (Glimepiride) to lower blood glucose” (priority 2014, dated 2015).

Assay: Stopping Glimepiride tablets after secondary failure, then resuming; effect on blood glucose
Format: in vivo, human
Details: then resumed
Text: From new research, I found a new usage of sulfonylurea drug Glimepiride when secondary failure occurs. […] It is likely that recovery works because stopping taking the drug fools the human body to assume like the first day taking it which it is claimed.
Since pre-diabetes and/or diabetes have used sulfonylurea drugs since the mid-1950s (1), there is no new matter or invention of sulfonylurea drugs in this patent application. The newness in this patent application is the usage of sulfonylurea drug like Glimepiride that fails to work when secondary failure occurs by stopping taking the tablet for 3 or 5 days which automatically also lower blood glucose and then resuming taking it that works like the first day taking it. In essence, it prevents the patient from taking more dosage of medication and/or changing to another different medication.

CCC1=C(C)CN(C(=O)NCCc2ccc(S(=O)(=O)NC(=O)N[C@H]3CC[C@H](C)CC3)cc2)C1=O [Glimepiride]
effectiveness to lower blood glucose (tablets stopped for 3 days): recovers Glimepiride's effectiveness to lower blood glucose like the first day taking it | recovery effectiveness (tablets stopped for 5 days): recovery effectiveness was first detected
